Measurements from patent publication US10501482B2, “Compounds for treating spinal muscular atrophy” (Hoffmann-La Roche Inc., priority 2013, dated 2019).
Structures can show the parent of a compound that is named as a salt.

Key:
[1] = tested on: full length SMN2 minigene mRNA (FL SMN2mini) in HEK293H cells stably transfected with the SMN2-A minigene construct; assay: SMN2 minigene mRNA splicing RT-qPCR assay in cultured cells; format: cell-based; details: Homo sapiens, HEK293-H, 24 hours, 7-point concentration curve, concentration giving 1.5-fold FL SMN2mini mRNA vs vehicle, read-out: EC1.5x minigene (EC1.5x concentration for production of full length SMN2 minigene mRNA)
Method: The reverse transcription-quantitative PCR-based (RT-qPCR) assay is used to quantify the level of the full length SMN2 minigene (referred to herein by the term “FL SMN2mini”) mRNA containing SMN2 exon 7 in a HEK293H cell line stably transfected with said minigene and treated with a test compound.
The SMN2-A minigene construct was prepared as described in International Patent Application WO2009/151546A1 page 145 paragraph [00400] to page 147 paragraph [00412](incl. FIG. 1 and FIG. 3 therein).
HEK293H cells stably transfected with the SMN2-A minigene construct (10,000 cells/well) are seeded in 200 μL of cell culture medium (DMEM plus 10% FBS, with 200 μg/mL hygromycin) in 96-well flat-bottom plates and the plate is immediately swirled to ensure proper dispersal of cells and the formation of an even monolayer of cells. Cells are allowed to attach for 6 hours. […] A solution of test compound (1 μL, 200× in DMSO) is added to each cell-containing well and the plate is incubated for 24 hours in a cell culture incubator (37° C., 5% CO2, 100% relative humidity). 2 replicates are prepared for each test compound concentration. The cells are then lysed in the Cells-To-Ct lysis buffer and the lysate is stored at −80° C.
Full length SMN2-A minigene and GAPDH mRNA are quantified using the primers and probes referenced in Table 1. Primer SMN Forward A (SEQ ID NO.1) hybridizes to a nucleotide sequence in exon 7 (nucleotide 22 to nucleotide 40), primer SMN Reverse A (SEQ ID NO.2) hybridizes to a nucleotide sequence in the coding sequence of Firefly luciferase, SMN Probe A (SEQ ID NO.3) hybridizes to a nucleotide sequence in exon 7 (nucleotide 50 to nucleotide 54) and exon 8 (nucleotide 1 to nucleotide 21). The combination of these three oligonucleotides detects only SMN1 or SMN2 minigenes (RT-qPCR) and will not detect endogenous SMN1 or SMN2 genes.
The SMN forward and reverse primers are used at final concentrations of 0.4 μM. The SMN probe is used at a final concentration of 0.15 μM. The GAPDH primers are used at final concentrations of 0.2 μM and the probe at 0.15 μM.
The SMN2-minigene GAPDH mix (15 μL total volume) is prepared by combining 7.5 μL of 2×RT-PCR buffer, 0.4 μL of 25×RT-PCR enzyme mix, 0.75 μL of 20×GAPDH primer-probe mix, 4.0075 μL of water, 2 μL of 10-fold diluted cell lysate, 0.06 μL of 100 μM SMN forward primer, 0.06 μL of 100 μM SMN reverse primer, and 0.225 μL of 100 μM SMN probe.
PCR is carried out at the following temperatures for the indicated time: Step 1: 48° C. (15 min); Step 2: 95° C. (10 min); Step 3: 95° C. (15 sec); Step 4: 60° C. (1 min); then repeat Steps 3 and 4 for a total of 40 cycles.
Each reaction mixture contains both SMN2-A minigene and GAPDH primers/probe sets (multiplex design), allowing simultaneous measurement of the levels of two transcripts.
The increase in the abundance of the FL SMN2mini mRNA relative to that in cells treated with vehicle control is determined from real-time PCR data using a modified ΔΔCt method (as described in Livak and Schmittgen, Methods, 2001, 25:402-8). The amplification efficiency E is calculated from the slope of the amplification curve for FL SMN2mini and GAPDH individually. The abundance of FL SMN2mini and GAPDH mRNA are then calculated as (1+E)^−Ct, where Ct is the threshold value for each amplicon. The abundance of FL SMN2mini mRNA is normalized to GAPDH mRNA abundance. The normalized FL SMN2mini mRNA abundance from test compound-treated samples is then divided by normalized FL SMN2mini mRNA abundance from vehicle-treated cells to determine the level of FL SMN2mini mRNA relative to vehicle control.
Table 2 provides EC1.5x concentrations for production of full length SMN2 minigene mRNA that was obtained from the 7-point concentration data generated according to the above procedure for particular compounds of the present invention.

SMN protein = SMN protein assay (HTRF) in cultured SMA patient fibroblast cells; format: cell-based; details: SMA Type 1 human fibroblasts GM03813, 48 hours; for EC1.5x SMN protein (EC1.5x concentration for SMN protein expression): 7-point concentration curve, concentration giving 1.5 times SMN protein vs vehicle; for max. fold increase (maximum fold increase of SMN protein): 7-point concentration data, fold vs vehicle control
Method: The SMN HTRF (homogeneous time resolved fluorescence) assay is used to quantify the level of SMN protein in SMA patient fibroblast cells treated with test compounds.
Cells are thawed and cultured in DMEM-10% FBS for 72 hours. Cells are trypsinized, counted and re-suspended to a concentration of 25,000 cells/mL in DMEM-10% FBS. The cell suspensions are plated at 5,000 cells per well in a 96 well microtiter plate and incubated for 3 to 5 hours. […] 1 μL of test compound solution is transferred to cell-containing wells and cells are incubated for 48 hours in a cell culture incubator (37° C., 5% CO2, 100% relative humidity). Triplicate samples are set up for each test compound concentration. After 48 hours, the supernatant is removed from the wells and 25 μL of the RIPA lysis buffer, containing protease inhibitors, is added to the wells and incubated with shaking at room temperature for 1 hour. 25 μL of the diluent is added and then 35 μL of the resulting lysate is transferred to a 384-well plate, where each well contains 5 μL of the antibody solution (1:100 dilution of anti-SMN d2 and anti-SMN kryptate in SMN reconstitution buffer). The plate is centrifuged for 1 minute to bring the solution to the bottom of the wells, then incubated overnight at room temperature. Fluorescence for each well of the plate at 665 nm and 620 nm is measured on an EnVision multilabel plate reader (Perkin-Elmer).
The normalized fluorescence signal is calculated for each sample, Blank and vehicle control well by dividing the signal at 665 nm by the signal at 620 nm. Normalizing the signal accounts for possible fluorescence quenching due to the matrix effect of the lysate. The ΔF value (a measurement of SMN protein abundance as a percent value) for each sample well is calculated by subtracting the normalized average fluorescence for the Blank control wells from the normalized fluorescence for each sample well, then dividing this difference by the normalized average fluorescence for the Blank control wells and multiplying the resulting value by 100. The ΔF value for each sample well represents the SMN protein abundance from test compound-treated samples. The ΔF value for each sample well is divided by the ΔF value for the vehicle control wells to calculate the fold increase in SMN protein abundance relative to the vehicle control. Table 3 provides EC1.5x concentrations for SMN protein expression that was obtained from the 7-point concentration data generated according to the above procedure for particular compounds of the present invention.
Table 4 provides the maximum fold increase of SMN protein that was obtained from the 7-point concentration data generated according to the above procedure for particular compounds of the present invention

| Structure (SMILES) | EC (1.5-fold) [1] [µM] | EC1.5x SMN protein (EC1.5x concentration for SMN protein expression) (SMN protein) [µM] | max. fold increase (maximum fold increase of SMN protein) (SMN protein) |
| --- | --- | --- | --- |
| Cc1cn2cc(NC(=O)c3ccc(N4CCNCC4)cc3F)cc(C(F)(F)F)c2n1 [Example 59, 2-fluoro-N-(2-methyl-8-(trifluoromethyl)-imidazo[1,2-a]-pyridin-6-yl)-4-(piperazin-1-yl)-benzamide] | 0.109 | 0.2749 | 1.7116 |
| COc1cc(N2CCNCC2)ncc1C(=O)Nc1cc(F)c2nc(C)cn2c1 [Example 69, N-(8-fluoro-2-methylimidazo[1,2-a]pyridin-6-yl)-4-methoxy-6-(piperazin-1-yl)nicotinamide] | 0.0308 | 0.1645 | 1.7612 |
| CCOc1nc(N2CCNCC2)ccc1C(=O)Nc1cc(F)c2nc(C)cn2c1 [Example 72, 2-ethoxy-N-(8-fluoro-2-methylimidazo[1,2-a]pyridin-6-yl)-6-(piperazin-1-yl)-nicotinamide] | 0.015 | 0.1324 | 1.7095 |
| Cc1cn2cc(NC(=O)c3ccc(N4CCNC(C)C4)nc3)ccc2n1 (racemic) [Example 12, rac-N-(2-methyl-imidazo[1,2-a]-pyridin-6-yl)-6-(3-methyl-piperazin-1-yl)nicotinamide] | 0.312 | 0.7037 | 1.6512 |
| Cc1nc2c(F)cc(NC(=O)c3ccc(N4CCNCC4)cc3)cc2o1 [Example 28, N-(4-fluoro-2-methylbenzo[d]-oxazol-6-yl)-4-(piperazin-1-yl)benzamide] | 0.252 | 0.2868 | 1.7291 |
| Cc1cn2cc(NC(=O)c3ccc(N4CCNC(C)C4)c(F)c3F)cc(F)c2n1 (racemic) [Example 45, rac-2,3-difluoro-N-(8-fluoro-2-methylimidazo[1,2-a]pyridin-6-yl)-4-(3-methylpiperazin-1-yl)benzamide hydrochloride] | 0.0615 | 0.5147 | 1.6445 |
| Cc1cn2cc(NC(=O)c3ccc(N4C[C@H]5CNC[C@H]5C4)nc3)ccc2n1 [Example 15, 6-hexahydro-pyrrolo[3,4-c]-pyrrol-2(1H)-yl)-N-(2-methyl-imidazo[1,2-a]-pyridin-6-yl)-nicotinamide hydrochloride] | 0.254 | 0.281 | 1.6859 |
| Cc1cn2cc(NC(=O)c3ccc(N4CCNC(C)C4)cc3F)nc2c(C)n1 (racemic) [Example 5, rac-N-(6,8-dimethyl-imidazo[1,2-a]-pyrazin-2-yl)-2-fluoro-4-(3-methyl-piperazin-1-yl)-benzamide] | 0.0612 | 0.107 | 1.7757 |
| Cc1cn2cc(NC(=O)c3ccc(N4CCNC(C)C4)cn3)cc(F)c2n1 (racemic) [Example 43, rac-N-(8-fluoro-2-methylimidazo[1,2-a]pyridin-6-yl)-5-(3-methylpiperazin-1-yl)picolinamide dihydrochloride] | 0.057 | 0.104 | 1.7873 |
| Cc1cn2cc(NC(=O)c3ccc(C4CCN(C)CC4)nc3)cc(F)c2n1 [Example 80, N-(8-fluoro-2-methylimidazo[1,2-a]pyridin-6-yl)-6-(1-methylpiperidin-4-yl)nicotinamide] | 0.115 | 0.52 | 1.5928 |
| Cc1nc2c(F)cc(NC(=O)c3ccc(N4CCNCC4)cc3F)cc2o1 [Example 58, 2-fluoro-N-(4-fluoro-2-methyl-benzo[d]oxazol-6-yl)-4-(piperazin-1-yl)benzamide] | 0.0398 | 0.1159 | 1.7744 |
| Cc1cn2cc(NC(=O)c3ccc(C4=CCNCC4)cc3F)ccc2n1 [Example 60, 2-fluoro-N-(2-methylimidazo[1,2-a]pyridin-6-yl)-4-(1,2,3,6-tetrahydro-pyridin-4-yl)-benzamide hydrochloride] | 0.0428 | 0.107 | 1.7375 |
| Cc1cn2cc(NC(=O)c3cc(F)c(N4CCNC(C)C4)cc3F)cc(F)c2n1 (racemic) [Example 46, rac-2,5-difluoro-N-(8-fluoro-2-methyl-imidazo[1,2-a]-pyridin-6-yl)-4-(3-methylpiperazin-1-yl)benzamide hydrochloride] | 0.0887 | 0.3584 | 1.5572 |
| Cc1cn2cc(NC(=O)c3ccc(N4CCNCC4)cc3)cc(F)c2n1.Cl [Example 36, N-(8-fluoro-2-methylimidazo[1,2-a]pyridin-6-yl)-4-(piperazin-1-yl)benzamide hydrochloride] | 0.0278 | 0.1094 | 1.7018 |
